Key:
Test in all cases: radiometric filter-binding kinase assay, Kinase HotSpot
Settings in all cases: compound 0.5 µM; ATP 10 µM
PIM1 (human) = PIM1 (human) (UniProt P11309)
[1] = system: SGK1 (human), O00141 [S422D]
PTK6 (human) = PTK6 (human) (UniProt Q13882)
EPHA5 (human) = EPHA5 (human) (UniProt P54756)
PRKCB2 (human) = PRKCB2 (human) (UniProt P05771)
CSNK1G2 (human) = CSNK1G2 (human) (UniProt P78368)
ACVR1 (human) = ACVR1 (human) (UniProt Q04771)
HIPK2 (human) = HIPK2 (human) (UniProt Q9H2X6)
SRPK1 (human) = SRPK1 (human) (UniProt Q96SB4)
MAP3K14 (human) = MAP3K14 (human) (UniProt Q99558)
MAP3K3 (human) = MAP3K3 (human) (UniProt Q99759)
EPHB1 (human) = EPHB1 (human) (UniProt P54762)
MAP4K4 (human) = MAP4K4 (human) (UniProt O95819)
PRKCA (human) = PRKCA (human) (UniProt P17252)
SRPK3 (human) = SRPK3 (human) (UniProt Q9UPE1)
STK16 (human) = STK16 (human) (UniProt O75716)
Sequence of STK16 (human) (O75716 whole entry, looked up): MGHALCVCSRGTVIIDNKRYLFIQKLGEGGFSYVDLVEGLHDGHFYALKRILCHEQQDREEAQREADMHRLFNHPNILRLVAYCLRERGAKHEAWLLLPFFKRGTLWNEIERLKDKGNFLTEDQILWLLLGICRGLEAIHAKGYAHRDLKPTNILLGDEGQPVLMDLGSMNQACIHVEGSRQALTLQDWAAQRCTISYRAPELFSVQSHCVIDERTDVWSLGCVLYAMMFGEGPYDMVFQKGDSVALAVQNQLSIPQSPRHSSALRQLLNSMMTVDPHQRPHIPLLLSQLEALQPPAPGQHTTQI

WNK3 (human) = WNK3 (human) (UniProt Q9BYP7)
Sequence of WNK3 (human) (Q9BYP7 whole entry, looked up): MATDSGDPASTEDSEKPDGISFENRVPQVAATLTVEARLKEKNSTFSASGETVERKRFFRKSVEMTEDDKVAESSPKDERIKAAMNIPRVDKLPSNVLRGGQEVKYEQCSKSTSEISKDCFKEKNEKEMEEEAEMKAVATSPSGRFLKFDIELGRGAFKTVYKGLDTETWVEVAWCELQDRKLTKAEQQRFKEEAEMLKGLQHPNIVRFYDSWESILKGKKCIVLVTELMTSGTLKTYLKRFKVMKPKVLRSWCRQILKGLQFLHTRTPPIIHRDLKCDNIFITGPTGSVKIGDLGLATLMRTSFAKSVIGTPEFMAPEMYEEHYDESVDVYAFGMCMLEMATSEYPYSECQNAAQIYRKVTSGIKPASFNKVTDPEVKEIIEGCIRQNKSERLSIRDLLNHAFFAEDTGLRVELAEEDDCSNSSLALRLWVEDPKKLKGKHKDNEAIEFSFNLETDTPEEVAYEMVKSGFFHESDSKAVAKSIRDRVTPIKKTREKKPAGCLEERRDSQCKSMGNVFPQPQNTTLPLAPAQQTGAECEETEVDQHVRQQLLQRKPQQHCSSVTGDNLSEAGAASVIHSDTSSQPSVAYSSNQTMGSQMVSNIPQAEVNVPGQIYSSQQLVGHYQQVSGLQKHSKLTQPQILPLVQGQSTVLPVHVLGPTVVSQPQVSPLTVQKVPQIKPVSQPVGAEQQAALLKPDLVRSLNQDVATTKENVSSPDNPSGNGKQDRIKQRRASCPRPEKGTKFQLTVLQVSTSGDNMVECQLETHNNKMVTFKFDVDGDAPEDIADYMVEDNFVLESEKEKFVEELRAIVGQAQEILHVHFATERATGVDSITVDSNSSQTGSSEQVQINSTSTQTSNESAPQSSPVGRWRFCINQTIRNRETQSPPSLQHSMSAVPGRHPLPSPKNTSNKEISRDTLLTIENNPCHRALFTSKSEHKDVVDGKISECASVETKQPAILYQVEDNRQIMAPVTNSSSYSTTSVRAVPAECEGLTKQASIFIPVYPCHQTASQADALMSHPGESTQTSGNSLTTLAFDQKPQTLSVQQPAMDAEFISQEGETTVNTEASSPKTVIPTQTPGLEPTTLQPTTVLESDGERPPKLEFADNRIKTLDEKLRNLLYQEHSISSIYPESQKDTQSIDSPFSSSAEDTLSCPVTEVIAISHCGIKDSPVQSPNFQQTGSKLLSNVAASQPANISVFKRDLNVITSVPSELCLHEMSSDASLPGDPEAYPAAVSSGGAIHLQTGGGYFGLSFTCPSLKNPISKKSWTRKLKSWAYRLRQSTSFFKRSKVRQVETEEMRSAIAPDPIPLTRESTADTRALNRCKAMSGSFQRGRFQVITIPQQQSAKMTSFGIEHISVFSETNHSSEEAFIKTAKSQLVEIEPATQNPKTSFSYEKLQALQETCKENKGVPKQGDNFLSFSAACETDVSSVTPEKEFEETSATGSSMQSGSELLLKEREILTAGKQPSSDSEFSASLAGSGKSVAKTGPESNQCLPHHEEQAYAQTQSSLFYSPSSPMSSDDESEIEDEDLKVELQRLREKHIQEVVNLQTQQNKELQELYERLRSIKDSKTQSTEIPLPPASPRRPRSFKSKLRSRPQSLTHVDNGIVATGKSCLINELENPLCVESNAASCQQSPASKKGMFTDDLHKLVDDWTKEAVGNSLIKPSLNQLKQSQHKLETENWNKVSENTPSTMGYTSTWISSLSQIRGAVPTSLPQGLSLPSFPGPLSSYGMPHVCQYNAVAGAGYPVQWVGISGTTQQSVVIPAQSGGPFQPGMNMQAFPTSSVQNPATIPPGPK

CDK5 CDK5R1 p25 (human) = CDK5 CDK5R1 p25 (human) (UniProt Q00535+Q15078)
PRKX (human) = PRKX (human) (UniProt P51817)
CAMK1 (human) = CAMK1 (human) (UniProt Q14012)
ACVRL1 (human) = ACVRL1 (human) (UniProt P37023)
Sequence of ACVRL1 (human) (P37023 whole entry, looked up): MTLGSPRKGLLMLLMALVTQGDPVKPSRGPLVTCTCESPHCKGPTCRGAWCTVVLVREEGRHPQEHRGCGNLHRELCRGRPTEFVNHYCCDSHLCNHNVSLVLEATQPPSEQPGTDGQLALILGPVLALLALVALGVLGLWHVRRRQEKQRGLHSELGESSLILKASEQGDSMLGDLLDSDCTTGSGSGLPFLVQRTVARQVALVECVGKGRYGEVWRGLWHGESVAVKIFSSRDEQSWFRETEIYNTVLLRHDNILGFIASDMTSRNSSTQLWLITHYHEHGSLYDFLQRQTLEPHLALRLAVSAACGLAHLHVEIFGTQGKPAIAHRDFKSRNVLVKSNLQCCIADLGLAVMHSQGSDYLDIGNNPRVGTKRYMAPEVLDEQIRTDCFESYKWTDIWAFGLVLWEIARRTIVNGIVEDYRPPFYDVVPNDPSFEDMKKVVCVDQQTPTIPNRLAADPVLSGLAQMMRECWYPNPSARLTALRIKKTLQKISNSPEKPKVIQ

MAP4K5 (human) = MAP4K5 (human) (UniProt Q9Y4K4)
EPHB3 (human) = EPHB3 (human) (UniProt P54753)
MAP3K2 (human) = MAP3K2 (human) (UniProt Q9Y2U5)
JAK3 JH1 JH2 (human) = JAK3 JH1 JH2 (human) (UniProt P52333)
DYRK4 (human) = DYRK4 (human) (UniProt Q9NR20)
MAP2K2 (human) = MAP2K2 (human) (UniProt P36507)
Sequence of MAP2K2 (human) (P36507 whole entry, looked up): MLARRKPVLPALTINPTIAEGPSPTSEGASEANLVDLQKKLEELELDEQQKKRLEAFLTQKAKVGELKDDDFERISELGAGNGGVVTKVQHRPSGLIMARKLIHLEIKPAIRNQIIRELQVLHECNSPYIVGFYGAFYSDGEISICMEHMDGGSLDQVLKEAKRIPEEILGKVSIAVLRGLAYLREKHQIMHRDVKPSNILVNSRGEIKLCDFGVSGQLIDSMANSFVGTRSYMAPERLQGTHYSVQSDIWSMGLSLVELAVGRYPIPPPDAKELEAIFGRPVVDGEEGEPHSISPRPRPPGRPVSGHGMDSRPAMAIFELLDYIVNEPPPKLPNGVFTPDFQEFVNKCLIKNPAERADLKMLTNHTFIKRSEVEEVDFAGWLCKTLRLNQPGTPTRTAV

MAP3K7 TAB1 (human) = MAP3K7 TAB1 (human) (UniProt O43318+Q15750)
TBK1 (human) = TBK1 (human) (UniProt Q9UHD2)
CLK1 (human) = CLK1 (human) (UniProt P49759)
PLK3 (human) = PLK3 (human) (UniProt Q9H4B4)
SLK (human) = SLK (human) (UniProt Q9H2G2)
MINK1 (human) = MINK1 (human) (UniProt Q8N4C8)
CDK4 CCND1 (human) = CDK4 CCND1 (human) (UniProt P24385+P11802)
MARK3 (human) = MARK3 (human) (UniProt P27448)
MAPK10 (human) = MAPK10 (human) (UniProt P53779)
IKBKE (human) = IKBKE (human) (UniProt Q14164)
Sequence of IKBKE (human) (Q14164 whole entry, looked up): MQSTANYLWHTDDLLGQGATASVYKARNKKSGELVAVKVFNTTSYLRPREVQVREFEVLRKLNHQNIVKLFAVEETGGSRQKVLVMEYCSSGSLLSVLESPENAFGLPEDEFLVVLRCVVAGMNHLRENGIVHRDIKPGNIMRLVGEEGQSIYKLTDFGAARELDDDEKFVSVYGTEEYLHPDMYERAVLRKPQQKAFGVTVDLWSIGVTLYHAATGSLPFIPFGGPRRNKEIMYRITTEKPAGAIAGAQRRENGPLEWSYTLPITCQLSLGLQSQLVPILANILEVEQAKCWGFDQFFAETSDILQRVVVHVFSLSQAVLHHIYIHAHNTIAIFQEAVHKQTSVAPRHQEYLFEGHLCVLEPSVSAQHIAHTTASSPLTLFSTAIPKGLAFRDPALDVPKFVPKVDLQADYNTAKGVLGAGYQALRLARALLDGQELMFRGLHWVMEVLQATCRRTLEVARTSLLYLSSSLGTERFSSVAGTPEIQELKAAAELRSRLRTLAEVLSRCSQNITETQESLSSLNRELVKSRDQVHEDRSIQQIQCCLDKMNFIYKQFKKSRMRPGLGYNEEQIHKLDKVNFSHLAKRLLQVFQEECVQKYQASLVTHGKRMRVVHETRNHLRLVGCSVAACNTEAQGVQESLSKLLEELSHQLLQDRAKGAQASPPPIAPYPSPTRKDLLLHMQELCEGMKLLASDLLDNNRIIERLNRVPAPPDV

TYRO3 (human) = TYRO3 (human) (UniProt Q06418)
TEC (human) = TEC (human) (UniProt P42680)
AURKB (human) = AURKB (human) (UniProt Q96GD4)
PRKCH (human) = PRKCH (human) (UniProt P24723)
TTK (human) = TTK (human) (UniProt P33981)

Sequence of PRKCB2 (human) (P05771 whole entry, looked up): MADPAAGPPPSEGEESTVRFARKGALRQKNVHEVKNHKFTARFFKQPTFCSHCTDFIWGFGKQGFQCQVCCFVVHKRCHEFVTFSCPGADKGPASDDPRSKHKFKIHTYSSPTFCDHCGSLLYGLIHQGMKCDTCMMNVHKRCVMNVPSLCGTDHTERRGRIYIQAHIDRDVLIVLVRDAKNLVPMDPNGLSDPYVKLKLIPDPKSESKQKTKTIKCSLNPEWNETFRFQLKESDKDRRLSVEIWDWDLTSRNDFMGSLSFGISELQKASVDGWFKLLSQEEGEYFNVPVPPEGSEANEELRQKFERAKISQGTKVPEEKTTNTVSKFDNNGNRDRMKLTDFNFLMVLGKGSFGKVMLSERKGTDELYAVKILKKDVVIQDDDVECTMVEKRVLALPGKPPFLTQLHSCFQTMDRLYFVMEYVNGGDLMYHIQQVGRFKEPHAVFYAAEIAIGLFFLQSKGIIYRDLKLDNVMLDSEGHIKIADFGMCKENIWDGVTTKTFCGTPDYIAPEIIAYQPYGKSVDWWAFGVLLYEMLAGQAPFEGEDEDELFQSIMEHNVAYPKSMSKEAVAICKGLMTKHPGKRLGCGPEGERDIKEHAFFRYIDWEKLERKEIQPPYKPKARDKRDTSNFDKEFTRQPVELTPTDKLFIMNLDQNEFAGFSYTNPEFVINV
Sequence of CSNK1G2 (human) (P78368 whole entry, looked up): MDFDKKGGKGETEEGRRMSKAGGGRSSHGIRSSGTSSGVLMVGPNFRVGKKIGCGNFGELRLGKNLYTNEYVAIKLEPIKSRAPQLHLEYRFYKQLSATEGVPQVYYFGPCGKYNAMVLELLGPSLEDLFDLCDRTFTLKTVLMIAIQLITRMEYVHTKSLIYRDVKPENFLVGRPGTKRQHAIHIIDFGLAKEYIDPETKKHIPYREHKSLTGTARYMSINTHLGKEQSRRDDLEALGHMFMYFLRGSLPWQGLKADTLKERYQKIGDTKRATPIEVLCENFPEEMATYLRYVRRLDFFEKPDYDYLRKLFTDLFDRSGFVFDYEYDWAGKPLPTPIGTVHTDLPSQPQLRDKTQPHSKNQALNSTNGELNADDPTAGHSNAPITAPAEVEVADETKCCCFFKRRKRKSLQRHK

Structure (SMILES): O=C(c1ccccc1)c1ccc(N2CCOCC2)cc1O
- residual activity (PIM1 (human)): 101%
- residual activity [1]: 101%
- residual activity (PTK6 (human)): 98.2%
- residual activity (EPHA5 (human)): 112%
- residual activity (PRKCB2 (human)): 99.2%
- residual activity (CSNK1G2 (human)): 96.1%
- residual activity (ACVR1 (human)): 107%
- residual activity (HIPK2 (human)): 105%
- residual activity (SRPK1 (human)): 94.2%
- residual activity (MAP3K14 (human)): 75.1%
- residual activity (MAP3K3 (human)): 97.8%
- residual activity (EPHB1 (human)): 104%
- residual activity (MAP4K4 (human)): 86.4%
- residual activity (PRKCA (human)): 84.2%
- residual activity (SRPK3 (human)): 103%
- residual activity (STK16 (human)): 104%
- residual activity (WNK3 (human)): 104%
- residual activity (CDK5 CDK5R1 p25 (human)): 98.8%
- residual activity (PRKX (human)): 109%
- residual activity (CAMK1 (human)): 97.5%
- residual activity (ACVRL1 (human)): 105%
- residual activity (MAP4K5 (human)): 100%
- residual activity (EPHB3 (human)): 92.2%
- residual activity (MAP3K2 (human)): 102%
- residual activity (JAK3 JH1 JH2 (human)): 103%
- residual activity (DYRK4 (human)): 94.9%
- residual activity (MAP2K2 (human)): 101%
- residual activity (MAP3K7 TAB1 (human)): 101%
- residual activity (TBK1 (human)): 100%
- residual activity (CLK1 (human)): 108%
- residual activity (PLK3 (human)): 99.1%
- residual activity (SLK (human)): 106%
- residual activity (MINK1 (human)): 91.1%
- residual activity (CDK4 CCND1 (human)): 96.1%
- residual activity (MARK3 (human)): 105%
- residual activity (MAPK10 (human)): 75.3%
- residual activity (IKBKE (human)): 101%
- residual activity (TYRO3 (human)): 101%
- residual activity (TEC (human)): 119%
- residual activity (AURKB (human)): 95.5%
- residual activity (PRKCH (human)): 70%
- residual activity (TTK (human)): 104%

Structure (SMILES): FC(F)(F)c1ccc(/C=C/c2nc(COc3ccc(CCCCn4ccnn4)cc3)co2)cc1
- residual activity (PIM1 (human)): 102%
- residual activity [1]: 102%
- residual activity (PTK6 (human)): 97.8%
- residual activity (EPHA5 (human)): 99.9%
- residual activity (PRKCB2 (human)): 93.1%
- residual activity (CSNK1G2 (human)): 96.7%
- residual activity (ACVR1 (human)): 101%
- residual activity (HIPK2 (human)): 90.2%
- residual activity (SRPK1 (human)): 98.1%
- residual activity (MAP3K14 (human)): 95.8%
- residual activity (MAP3K3 (human)): 112%
- residual activity (EPHB1 (human)): 99.4%
- residual activity (MAP4K4 (human)): 95.1%
- residual activity (PRKCA (human)): 111%
- residual activity (SRPK3 (human)): 104%
- residual activity (STK16 (human)): 104%
- residual activity (WNK3 (human)): 98.5%
- residual activity (PRKX (human)): 95.3%
- residual activity (CAMK1 (human)): 105%
- residual activity (ACVRL1 (human)): 103%
- residual activity (MAP4K5 (human)): 96.5%
- residual activity (EPHB3 (human)): 94.9%
- residual activity (MAP3K2 (human)): 102%
- residual activity (JAK3 JH1 JH2 (human)): 93%
- residual activity (DYRK4 (human)): 101%
- residual activity (MAP2K2 (human)): 114%
- residual activity (MAP3K7 TAB1 (human)): 88.7%
- residual activity (TBK1 (human)): 101%
- residual activity (CLK1 (human)): 101%
- residual activity (PLK3 (human)): 107%
- residual activity (SLK (human)): 92.8%
- residual activity (MINK1 (human)): 96.8%
- residual activity (CDK4 CCND1 (human)): 96.8%
- residual activity (MARK3 (human)): 96.6%
- residual activity (MAPK10 (human)): 94.6%
- residual activity (IKBKE (human)): 94.8%
- residual activity (TYRO3 (human)): 103%
- residual activity (TEC (human)): 86.4%
- residual activity (AURKB (human)): 98%
- residual activity (PRKCH (human)): 87.6%
- residual activity (TTK (human)): 111%

Structure (SMILES): Nc1ncnc2c1cnn2-c1ccccc1
- residual activity (PIM1 (human)): 99.4%
- residual activity [1]: 90.9%
- residual activity (PTK6 (human)): 92%
- residual activity (EPHA5 (human)): 95.6%
- residual activity (PRKCB2 (human)): 96.5%
- residual activity (CSNK1G2 (human)): 95.1%
- residual activity (ACVR1 (human)): 101%
- residual activity (HIPK2 (human)): 103%
- residual activity (SRPK1 (human)): 98.1%
- residual activity (MAP3K14 (human)): 120%
- residual activity (MAP3K3 (human)): 95.5%
- residual activity (EPHB1 (human)): 97.5%
- residual activity (MAP4K4 (human)): 94.4%
- residual activity (PRKCA (human)): 103%
- residual activity (SRPK3 (human)): 96.4%
- residual activity (STK16 (human)): 94.3%
- residual activity (WNK3 (human)): 97.2%
- residual activity (CDK5 CDK5R1 p25 (human)): 102%
- residual activity (PRKX (human)): 95.3%
- residual activity (CAMK1 (human)): 97.5%
- residual activity (ACVRL1 (human)): 109%
- residual activity (MAP4K5 (human)): 87.2%
- residual activity (EPHB3 (human)): 93.5%
- residual activity (MAP3K2 (human)): 89.5%
- residual activity (JAK3 JH1 JH2 (human)): 97.4%
- residual activity (DYRK4 (human)): 98.4%
- residual activity (MAP2K2 (human)): 96.9%
- residual activity (MAP3K7 TAB1 (human)): 98.9%
- residual activity (CLK1 (human)): 91.8%
- residual activity (PLK3 (human)): 94.6%
- residual activity (SLK (human)): 98%
- residual activity (MINK1 (human)): 88.9%
- residual activity (CDK4 CCND1 (human)): 103%
- residual activity (MARK3 (human)): 86.1%
- residual activity (MAPK10 (human)): 100%
- residual activity (IKBKE (human)): 100%
- residual activity (TYRO3 (human)): 102%
- residual activity (TEC (human)): 103%
- residual activity (AURKB (human)): 99.2%
- residual activity (PRKCH (human)): 94.8%
- residual activity (TTK (human)): 90.6%

Structure (SMILES): CCCCc1c(-c2ccc(O)cc2)[nH]c2nccnc12
- residual activity (PIM1 (human)): 83.8%
- residual activity [1]: 88.1%
- residual activity (PTK6 (human)): 29.7%
- residual activity (EPHA5 (human)): 96.4%
- residual activity (PRKCB2 (human)): 118%
- residual activity (CSNK1G2 (human)): 78.5%
- residual activity (ACVR1 (human)): 83.8%
- residual activity (HIPK2 (human)): 88.5%
- residual activity (SRPK1 (human)): 101%
- residual activity (MAP3K14 (human)): 95.4%
- residual activity (MAP3K3 (human)): 127%
- residual activity (EPHB1 (human)): 78%
- residual activity (MAP4K4 (human)): 60.9%
- residual activity (PRKCA (human)): 83.7%
- residual activity (SRPK3 (human)): 98.6%
- residual activity (STK16 (human)): 55.4%
- residual activity (WNK3 (human)): 90.3%
- residual activity (PRKX (human)): 110%
- residual activity (CAMK1 (human)): 92.5%
- residual activity (ACVRL1 (human)): 76.2%
- residual activity (MAP4K5 (human)): 65.3%
- residual activity (MAP3K2 (human)): 77.2%
- residual activity (JAK3 JH1 JH2 (human)): 92.2%
- residual activity (DYRK4 (human)): 99.7%
- residual activity (MAP2K2 (human)): 84.7%
- residual activity (MAP3K7 TAB1 (human)): 80.3%
- residual activity (TBK1 (human)): 82.1%
- residual activity (CLK1 (human)): 97.9%
- residual activity (PLK3 (human)): 90.6%
- residual activity (SLK (human)): 77.3%
- residual activity (MINK1 (human)): 82%
- residual activity (CDK4 CCND1 (human)): 66.4%
- residual activity (MARK3 (human)): 88.2%
- residual activity (MAPK10 (human)): 100%
- residual activity (IKBKE (human)): 88.3%
- residual activity (TYRO3 (human)): 99.6%
- residual activity (TEC (human)): 87.3%
- residual activity (AURKB (human)): 66.9%
- residual activity (PRKCH (human)): 90.5%
- residual activity (TTK (human)): 91.6%

Source: the kinase profiling compilation of Christmann-Franck et al. (2016)
